Measurements published in patent publication US20210045385A1, “PYRIDAZINONE-SUBSTITUTED KETOXIMES AS HERBICIDES” (FMC Corporation, priority 2018, published 2021).

Legend:
Type in all cases: in vivo
[1] = system: sedge umbrella (small-flower umbrella sedge, Cyperus difformis); experiment: Test D flooded paddy test, visual plant response rating; settings: 250 g ai/ha, scale 0 to 100 (0 no effect, 100 complete control), 13 to 15 d
Outline: (§1)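 Rating is visual, on a 0 (no effect) to 100 (complete control) scale versus controls, taken 13 to 15 d after treatment in a greenhouse. Treatment went into paddy water kept 3 cm above the soil surface, with plants at the 2-leaf stage.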

[2] = system: barnyardgrass (Echinochloa crus-galli); experiment: as above; settings: 250 g ai/ha, scale 0 to 100 (0 no effect, 100 complete control), 13 to 15 d
Outline: as §1

rice (Oryza sativa) = experiment: as above; settings: 250 g ai/ha, scale 0 to 100 (0 no effect, 100 complete control), 13 to 15 d
Outline: as §1

[3] = system: duck salad (Heteranthera limosa); experiment: as above; settings: 250 g ai/ha, scale 0 to 100 (0 no effect, 100 complete control), 13 to 15 d
Outline: as §1

kochia (Bassia scoparia) [4] = experiment: Test C preemergence, visual plant response rating
Outline: (§2)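 Visual injury on a 0 (no effect) to 100 (complete control) scale versus untreated controls, scored approximately 10 d after treatment under greenhouse conditions. Treatments used surfactant-containing non-phytotoxic solvent formulations, sprayed onto loam–sand soil preemergence or onto one- to two-leaf plants 2–10 cm tall postemergence.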

[5] = system: foxtail, giant (giant foxtail, Setaria faberi); experiment: Test C preemergence, visual plant response rating
Outline: as §2

[6] = system: Italian ryegrass (Lolium mutiflorum); experiment: Test C preemergence, visual plant response rating
Outline: as §2

[7] = system: barnyardgrass (Echinochloa crus-galli); experiment: Test C preemergence, visual plant response rating
Outline: as §2

[8] = system: pigweed (Amaranthus retroflexus); experiment: Test C preemergence, visual plant response rating
Outline: as §2

kochia (Bassia scoparia) [9] = experiment: Test C postemergence, visual plant response rating
Outline: as §2

[10] = system: foxtail, giant (giant foxtail, Setaria faberi); experiment: Test C postemergence, visual plant response rating
Outline: as §2

[11] = system: ragweed (common ragweed, Ambrosia artemisiifolia); experiment: Test C postemergence, visual plant response rating
Outline: as §2

[12] = system: Italian ryegrass (Lolium mutiflorum); experiment: Test C postemergence, visual plant response rating
Outline: as §2

[13] = system: blackgrass (Alopecurus myosuroides); experiment: Test C postemergence, visual plant response rating
Outline: as §2

[14] = system: wheat (Triticum aestivum); experiment: Test C postemergence, visual plant response rating
Outline: as §2

corn (Zea mays) = experiment: Test C postemergence, visual plant response rating
Outline: as §2

[15] = system: galium (catchweed bedstraw, Galium aparine); experiment: Test C postemergence, visual plant response rating
Outline: as §2

[16] = system: barnyardgrass (Echinochloa crus-galli); experiment: Test C postemergence, visual plant response rating
Outline: as §2

[17] = system: pigweed (Amaranthus retroflexus); experiment: Test C postemergence, visual plant response rating
Outline: as §2

[18] = Test C, 31 g ai/ha, 0 is no effect, 100 is complete control
[19] = Test C, 125 g ai/ha, 0 is no effect, 100 is complete control
[20] = Test C, postemergence, 125 g ai/ha
[21] = Test C, postemergence, 500 g ai/ha

| Compound | Plant response rating, Sedge, Umbrella (Flood) [1] | Plant response rating, Barnyardgrass (Flood) [2] | Plant response rating, Rice (Flood) (rice (Oryza sativa)) | Plant response rating, Ducksalad (Flood) [3] | Kochia plant response rating (0 to 100 scale) (kochia (Bassia scoparia) [4]; [18]) | Kochia plant response rating (0 to 100 scale) (kochia (Bassia scoparia) [4]; [19]) | Foxtail, Giant plant response rating (0 to 100 scale) [5, 18] | Foxtail, Giant plant response rating (0 to 100 scale) [5, 19] | Ryegrass, Italian plant response rating (0 to 100 scale) [6, 18] | Ryegrass, Italian plant response rating (0 to 100 scale) [6, 19] | Kochia plant response rating (0 to 100 scale) (kochia (Bassia scoparia) [9]; [20]) | Foxtail, Giant plant response rating (0 to 100 scale) [10, 20] | Ragweed plant response rating (0 to 100 scale) [11, 20] | Ryegrass, Italian plant response rating (0 to 100 scale) [12, 20] | Blackgrass plant response rating (0 to 100 scale) [13, 20] | Wheat plant response rating (0 to 100 scale) [14, 20] | Corn plant response rating (0 to 100 scale) (corn (Zea mays); [20]) | Galium plant response rating (0 to 100 scale) [15, 20] | Barnyardgrass plant response rating (0 to 100 scale) [16, 20] | Pigweed plant response rating (0 to 100 scale) [17, 20] | further results |
| --- | --- | --- | --- | --- | --- | --- | --- | --- | --- | --- | --- | --- | --- | --- | --- | --- | --- | --- | --- | --- | --- |
| CCO/N=C(/c1c(O)c(Cl)nn(C)c1=O)c1cc(Br)cc2ccccc12 [Compound 236] | 85 | 35 | 0 | 70 | 0 | 40 | 80 | 100 | 0 | 20 | 50 | 90 | 100 | 20 | 30 | 0 | 30 | 100 | 90 | 60 | Barnyardgrass plant response rating (0 to 100 scale) [7, 18]: 90; Barnyardgrass plant response rating (0 to 100 scale) [7, 19]: 90; Pigweed plant response rating (0 to 100 scale) [8, 18]: 10; Pigweed plant response rating (0 to 100 scale) [8, 19]: 70; Kochia plant response rating (0 to 100 scale) (kochia (Bassia scoparia) [9]; Postemergence, 31 g ai/ha): 30; Foxtail, Giant plant response rating (0 to 100 scale) ([10]; Postemergence, 31 g ai/ha): 60; Ragweed plant response rating (0 to 100 scale) ([11]; Postemergence, 31 g ai/ha): 100; Ryegrass, Italian plant response rating (0 to 100 scale) ([12]; Postemergence, 31 g ai/ha): 0; Blackgrass plant response rating (0 to 100 scale) ([13]; Postemergence, 31 g ai/ha): 0; Wheat plant response rating (0 to 100 scale) ([14]; Postemergence, 31 g ai/ha): 0; Corn plant response rating (0 to 100 scale) (corn (Zea mays); Postemergence, 31 g ai/ha): 20; Galium plant response rating (0 to 100 scale) ([15]; Postemergence, 31 g ai/ha): 90; Barnyardgrass plant response rating (0 to 100 scale) ([16]; Postemergence, 31 g ai/ha): 70; Pigweed plant response rating (0 to 100 scale) ([17]; Postemergence, 31 g ai/ha): 20 |
| CCO/N=C(\c1c(O)c(Cl)nn(C)c1=O)c1cc(Br)cc2ccccc12 [Compound 235] | 90 | 60 | 0 | 75 | 0 | 70 | 30 | 90 | 0 | 0 | 60 | 80 | 100 | 0 | 20 | 0 | 10 | 90 | 90 | 90 | Barnyardgrass plant response rating (0 to 100 scale) [7, 18]: 90; Barnyardgrass plant response rating (0 to 100 scale) [7, 19]: 100; Pigweed plant response rating (0 to 100 scale) [8, 18]: 100; Pigweed plant response rating (0 to 100 scale) [8, 19]: 90; Kochia plant response rating (0 to 100 scale) (kochia (Bassia scoparia) [9]; Postemergence, 31 g ai/ha): 50; Foxtail, Giant plant response rating (0 to 100 scale) ([10]; Postemergence, 31 g ai/ha): 40; Ragweed plant response rating (0 to 100 scale) ([11]; Postemergence, 31 g ai/ha): 100; Ryegrass, Italian plant response rating (0 to 100 scale) ([12]; Postemergence, 31 g ai/ha): 0; Blackgrass plant response rating (0 to 100 scale) ([13]; Postemergence, 31 g ai/ha): 20; Wheat plant response rating (0 to 100 scale) ([14]; Postemergence, 31 g ai/ha): 0; Corn plant response rating (0 to 100 scale) (corn (Zea mays); Postemergence, 31 g ai/ha): 0; Galium plant response rating (0 to 100 scale) ([15]; Postemergence, 31 g ai/ha): 90; Barnyardgrass plant response rating (0 to 100 scale) ([16]; Postemergence, 31 g ai/ha): 60; Pigweed plant response rating (0 to 100 scale) ([17]; Postemergence, 31 g ai/ha): 50 |
| C#CCON=C(c1c(O)c(OC)nn(C)c1=O)c1cccc2ccccc12 (mixture of isomers) [Compound 168] | 0 | 0 | 0 | 0 |  |  |  |  |  |  | 70 | 50 | 60 | 40 | 20 | 0 | 0 | 70 | 40 | 60 | Kochia plant response rating (0 to 100 scale) (kochia (Bassia scoparia) [4]; 125 g ai/ha): 0; Kochia plant response rating (0 to 100 scale) (kochia (Bassia scoparia) [4]; 500 g ai/ha): 10; Foxtail, Giant plant response rating (0 to 100 scale) ([5]; 125 g ai/ha): 80; Foxtail, Giant plant response rating (0 to 100 scale) ([5]; 500 g ai/ha): 100; Ryegrass, Italian plant response rating (0 to 100 scale) ([6]; 125 g ai/ha): 20; Ryegrass, Italian plant response rating (0 to 100 scale) ([6]; 500 g ai/ha): 90; Barnyardgrass plant response rating (0 to 100 scale) ([7]; 125 g ai/ha): 60; Barnyardgrass plant response rating (0 to 100 scale) ([7]; 500 g ai/ha): 80; Pigweed plant response rating (0 to 100 scale) ([8]; 125 g ai/ha): 100; Pigweed plant response rating (0 to 100 scale) ([8]; 500 g ai/ha): 100; Kochia plant response rating (0 to 100 scale) (kochia (Bassia scoparia) [9]; [21]): 80; Foxtail, Giant plant response rating (0 to 100 scale) [10, 21]: 90; Ragweed plant response rating (0 to 100 scale) [11, 21]: 90; Ryegrass, Italian plant response rating (0 to 100 scale) [12, 21]: 90; Blackgrass plant response rating (0 to 100 scale) [13, 21]: 80; Wheat plant response rating (0 to 100 scale) [14, 21]: 30; Corn plant response rating (0 to 100 scale) (corn (Zea mays); [21]): 20; Galium plant response rating (0 to 100 scale) [15, 21]: 90; Barnyardgrass plant response rating (0 to 100 scale) [16, 21]: 60; Pigweed plant response rating (0 to 100 scale) [17, 21]: 100 |
